Data as given in patent publication US20240270762A1, “PENICILLIN-BINDING PROTEIN INHIBITORS” (priority 2021, published 2024).
Converted amounts (≈) assume the structure as drawn. Where two headings read alike, the source gives them in different places.

Tests used:
[1] = test system: P. aeruginosa (ΔmexAB-oprM); experiment: Broth microdilution MIC in iron-depleted CAMHB (IDM); assay type: cell-based; conditions: Pseudomonas aeruginosa; iron-depleted CAMHB (IDM); […]; read-out: Minimum inhibitory concentration, P. aeruginosa ΔmexAB-oprM
[2] = test system: P. aeruginosa ATCC 35151; experiment: microbe, parasite or virus in culture; assay type: cell-based; conditions: Pseudomonas aeruginosa, ATCC35151, read-out: Minimum inhibitory concentration, P. aeruginosa ATCC 35151
[3] = test system: N. gonorrhoeae WHO X; experiment: Liquid broth MIC in Fastidious broth; conditions: Neisseria gonorrhoeae
Procedure: Liquid broth-based assays were used for antibacterial testing of PBP inhibitors in Neisseria gonorrhoeae. Briefly, cryo-preserved bacterial cultures of clinical strains were streaked for isolation on Chocolate Agar (72 g/L (2×) GC Agar Base (BD #228950) and 2% (2×) Hemoglobin was autoclaved at 121° C. for 20 minutes to sterilize. Once cooled to ˜50° C. the 2×GC Agar Base and 2× Hemoglobin solutions are combined and 1% IsoVitaleX Enrichment (BD #211876) was added to the solution). Strains were incubated at 36° C. and 5% CO2 to allow growth of colonies, 24 hours before inoculum preparation. 2-fold serial dilutions of test compounds were conducted in a 96 well plate with a final volume of 75 μL per well at 2-fold the final desired concentration in Fastidious broth (Remel #R07664). For preparation of assay inoculum, a direct suspension was prepared by aseptically swabbing 10-15 colonies from agar plates into culture tubes containing 2 mL of fresh sterile saline. After the dilution plates were set up, direct suspensions were then diluted in a cuvette containing sterile saline and the optical density was measured at 600 nm. Inocula were diluted such that 75 μL of this culture in Fastidious broth results in a starting bacterial concentration of 5×10^5 CFU/mL when added to the dilution plates. The plates were incubated for ˜24 hours at 36° C. and 5% CO2.

[4] = test system: A. baumannii ATCC 17978; experiment: microbe, parasite or virus in culture; assay type: cell-based; conditions: Acinetobacter baumannii, ATCC17978, read-out: MIC, A. baumannii ATCC 17978
[5] = test system: B. humptydooensis ATCC BAA-2767; experiment: microbe, parasite or virus in culture; assay type: cell-based; conditions: Burkholderia humptydooensis, ATCCBAA2767, read-out: Minimum inhibitory concentration (MIC), B. humptydooensis ATCC BAA-2767
[6] = test system: A. baumannii CDC-0045; experiment: microbe, parasite or virus in culture; assay type: cell-based; conditions: Acinetobacter baumannii, CDC0045, read-out: MIC, A. baumannii CDC-0045
[7] = test system: A. baumannii ATCC 19606; experiment: microbe, parasite or virus in culture; assay type: cell-based; conditions: Acinetobacter baumannii, ATCC19606, read-out: MIC, A. baumannii ATCC 19606
[8] = test system: P. aeruginosa ATCC 27853; experiment: microbe, parasite or virus in culture; assay type: cell-based; conditions: Pseudomonas aeruginosa, ATCC27853, read-out: Minimum inhibitory concentration, P. aeruginosa ATCC 27853
[9] = test system: N. gonorrhoeae WHO Q; experiment: Liquid broth MIC in Fastidious broth; conditions: Neisseria gonorrhoeae
[10] = test system: N. gonorrhoeae CDC-0197; experiment: Liquid broth MIC in Fastidious broth; conditions: Neisseria gonorrhoeae
[11] = test system: P. aeruginosa CDC-0110; experiment: microbe, parasite or virus in culture; assay type: cell-based; conditions: Pseudomonas aeruginosa, CDC0110, read-out: Minimum inhibitory concentration, P. aeruginosa CDC-0110
[12] = test system: A. baumannii CDC-0036; experiment: microbe, parasite or virus in culture; assay type: cell-based; conditions: Acinetobacter baumannii, CDC0036, read-out: MIC, A. baumannii CDC-0036
[13] = test system: P. aeruginosa CDC-0090; experiment: microbe, parasite or virus in culture; assay type: cell-based; conditions: Pseudomonas aeruginosa, CDC0090, read-out: Minimum inhibitory concentration, P. aeruginosa CDC-0090
[14] = test system: A. baumannii 1258916; experiment: microbe, parasite or virus in culture; assay type: cell-based, Acinetobacter baumannii; conditions: Acinetobacter baumannii, 1258916, read-out: MIC, A. baumannii 1258916
[15] = test system: B. thailandensis ATCC 700388; experiment: microbe, parasite or virus in culture; assay type: cell-based; conditions: Burkholderia thailandensis, ATCC700388, read-out: Minimum inhibitory concentration (MIC), B. thailandensis ATCC 700388
[16] = read-out: Minimum Inhibitory Concentration (MIC), N. gonorrhoeae WHO X
[17] = read-out: Minimum Inhibitory Concentration (MIC), N. gonorrhoeae WHO Q
[18] = CDC0197, read-out: Minimum Inhibitory Concentration (MIC), N. gonorrhoeae CDC-0197

Structure (SMILES)	MIC [1] [µg/mL]	MIC [2] [µg/mL]	MIC [3, 16] [µg/mL]	MIC [4] [µg/mL]	MIC [5] [µg/mL]	MIC [6] [µg/mL]	MIC [7] [µg/mL]	MIC [8] [µg/mL]	MIC [9, 17] [µg/mL]	MIC [10, 18] [µg/mL]	MIC [11] [µg/mL]	MIC [12] [µg/mL]	MIC [13] [µg/mL]	MIC [14] [µg/mL]	MIC [15] [µg/mL]	MIC ([3]; read-out: Minimum Inhibitory Concentration, WHO X) [µg/mL]	MIC ([9]; read-out: Minimum Inhibitory Concentration, WHO Q) [µg/mL]	MIC ([10]; CDC0197, read-out: Minimum Inhibitory Concentration, CDC-0197) [µg/mL]
O=C(NCCCN1CCN(C(=O)NC(C(=O)N[C@H]2Cc3ccc(F)c(C(=O)O)c3OB2O)c2cc(F)c(O)c(O)c2Cl)C(=O)C1=O)c1ccc(O)cc1 (stereo partly drawn) [Example 203, (3R)-3-(2-(2-chloro-5-fluoro-3,4-dihydroxyphenyl)-2-(4-(3-(4-hydroxybenzamido)propyl)-2,3-dioxopiperazine-1-carboxamido)acetamido)-7-fluoro-2-hydroxy-3,4-dihydro-2H-benzo[e][1,2]oxaborinine-8-carboxylic acid]	< 1	< 1	> 64	< 1	< 1	< 1	< 1	< 1	16 to 32 (≈ 21.1 to 42.1 µM)	16 to 32 (≈ 21.1 to 42.1 µM)	< 1	< 1	< 1	< 1	< 1	–	–	–
O=C(NCCN1CCN(C(=O)NC(C(=O)N[C@H]2Cc3ccc(F)c(C(=O)O)c3OB2O)c2cc(F)c(O)c(O)c2Cl)C(=O)C1=O)c1ccc(O)cc1 (stereo partly drawn) [Example 214, (3R)-3-(2-(2-chloro-5-fluoro-3,4-dihydroxyphenyl)-2-(4-(2-(4-hydroxybenzamido)ethyl)-2,3-dioxopiperazine-1-carboxamido)acetamido)-7-fluoro-2-hydroxy-3,4-dihydro-2H-benzo[e][1,2]oxaborinine-8-carboxylic acid]	< 1	< 1	> 64	< 1	< 1	2 to 4 (≈ 2.68 to 5.36 µM)	< 1	2 to 4 (≈ 2.68 to 5.36 µM)	> 64	16 to 32 (≈ 21.5 to 42.9 µM)	< 1	8 to 16 (≈ 10.7 to 21.5 µM)	< 1	2 to 4 (≈ 2.68 to 5.36 µM)	8 to 16 (≈ 10.7 to 21.5 µM)	–	–	–
O=C(CN1CCN(C(=O)NC(C(=O)N[C@H]2Cc3ccc(F)c(C(=O)O)c3OB2O)c2cc(F)c(O)c(O)c2Cl)C(=O)C1=O)Nc1ccccc1 (stereo partly drawn) [Example 232, (3R)-3-(2-(2-chloro-5-fluoro-3,4-dihydroxyphenyl)-2-(2,3-dioxo-4-(2-oxo-2-(phenylamino)ethyl)piperazine-1-carboxamido)acetamido)-7-fluoro-2-hydroxy-3,4-dihydro-2H-benzo[e][1,2]oxaborinine-8-carboxylic acid]	< 1	< 1	> 64	2 to 4 (≈ 2.79 to 5.59 µM)	> 128	8 to 16 (≈ 11.2 to 22.4 µM)	2 to 4 (≈ 2.79 to 5.59 µM)	2 to 4 (≈ 2.79 to 5.59 µM)	> 64	> 64	2 to 4 (≈ 2.79 to 5.59 µM)	8 to 16 (≈ 11.2 to 22.4 µM)	2 to 4 (≈ 2.79 to 5.59 µM)	2 to 4 (≈ 2.79 to 5.59 µM)	< 1	–	–	–
O=C(NCCN1CCN(C(=O)NC(C(=O)N[C@H]2Cc3ccc(F)c(C(=O)O)c3OB2O)c2cc(F)c(O)c(O)c2Cl)C1=O)c1nccs1 (stereo partly drawn) [Example 247, (3R)-3-(2-(2-chloro-5-fluoro-3,4-dihydroxyphenyl)-2-(2-oxo-3-(2-(thiazole-2-carboxamido)ethyl)imidazolidine-1-carboxamido)acetamido)-7-fluoro-2-hydroxy-3,4-dihydro-2H-benzo[e][1,2]oxaborinine-8-carboxylic acid]	< 1	< 1	–	< 1	< 1	< 1	< 1	2 to 4 (≈ 2.82 to 5.64 µM)	–	–	< 1	< 1	2 to 4 (≈ 2.82 to 5.64 µM)	< 1	< 1	> 64	16 to 32 (≈ 22.6 to 45.1 µM)	> 64
O=C(NCCCN1CCN(C(=O)NC(C(=O)N[C@H]2Cc3ccc(F)c(C(=O)O)c3OB2O)c2cc(F)c(O)c(O)c2Cl)C(=O)C1=O)Nc1cccnc1 (stereo partly drawn) [Example 213, (3R)-3-(2-(2-chloro-5-fluoro-3,4-dihydroxyphenyl)-2-(2,3-dioxo-4-(3-(3-(pyridin-3-yl)ureido)propyl)piperazine-1-carboxamido)acetamido)-7-fluoro-2-hydroxy-3,4-dihydro-2H-benzo[e][1,2]oxaborinine-8-carboxylic acid]	< 1	< 1	> 64	< 1	< 1	2 to 4 (≈ 2.63 to 5.26 µM)	< 1	2 to 4 (≈ 2.63 to 5.26 µM)	> 64	> 64	< 1	2 to 4 (≈ 2.63 to 5.26 µM)	2 to 4 (≈ 2.63 to 5.26 µM)	< 1	2 to 4 (≈ 2.63 to 5.26 µM)	–	–	–
O=C(NCCCN1CCN(C(=O)NC(C(=O)N[C@H]2Cc3ccc(F)c(C(=O)O)c3OB2O)c2cc(F)c(O)c(O)c2Cl)C(=O)C1=O)Nc1ccc(O)cc1 (stereo partly drawn) [Example 227, (3R)-3-(2-(2-chloro-5-fluoro-3,4-dihydroxyphenyl)-2-(4-(3-(3-(4-hydroxyphenyl)ureido)propyl)-2,3-dioxopiperazine-1-carboxamido)acetamido)-7-fluoro-2-hydroxy-3,4-dihydro-2H-benzo[e][1,2]oxaborinine-8-carboxylic acid]	< 1	< 1	> 64	< 1	< 1	< 1	< 1	< 1	> 64	> 64	< 1	2 to 4 (≈ 2.58 to 5.16 µM)	2 to 4 (≈ 2.58 to 5.16 µM)	< 1	< 1	–	–	–
O=C(NCCCN1CCN(C(=O)NC(C(=O)N[C@H]2Cc3ccc(F)c(C(=O)O)c3OB2O)c2cc(F)c(O)c(O)c2Cl)C(=O)C1=O)Nc1cccc(O)c1 (stereo partly drawn) [Example 206, (3R)-3-(2-(2-chloro-5-fluoro-3,4-dihydroxyphenyl)-2-(4-(3-(3-(3-hydroxyphenyl)ureido)propyl)-2,3-dioxopiperazine-1-carboxamido)acetamido)-7-fluoro-2-hydroxy-3,4-dihydro-2H-benzo[e][1,2]oxaborinine-8-carboxylic acid]	< 1	< 1	> 64	< 1	< 1	< 1	< 1	2 to 4 (≈ 2.58 to 5.16 µM)	16 to 32 (≈ 20.6 to 41.3 µM)	16 to 32 (≈ 20.6 to 41.3 µM)	< 1	< 1	< 1	< 1	2 to 4 (≈ 2.58 to 5.16 µM)	–	–	–
O=C(NCCN1CCN(C(=O)NC(C(=O)N[C@H]2Cc3ccc(F)c(C(=O)O)c3OB2O)c2cc(F)c(O)c(O)c2Cl)C(=O)C1=O)c1cccnc1 (stereo partly drawn) [Example 217, (3R)-3-(2-(2-chloro-5-fluoro-3,4-dihydroxyphenyl)-2-(4-(2-(nicotinamido)ethyl)-2,3-dioxopiperazine-1-carboxamido)acetamido)-7-fluoro-2-hydroxy-3,4-dihydro-2H-benzo[e][1,2]oxaborinine-8-carboxylic acid]	< 1	< 1	> 64	< 1	< 1	< 1	2 to 4 (≈ 2.74 to 5.47 µM)	2 to 4 (≈ 2.74 to 5.47 µM)	> 64	16 to 32 (≈ 21.9 to 43.8 µM)	< 1	8 to 16 (≈ 10.9 to 21.9 µM)	2 to 4 (≈ 2.74 to 5.47 µM)	2 to 4 (≈ 2.74 to 5.47 µM)	2 to 4 (≈ 2.74 to 5.47 µM)	–	–	–
O=C(CN1CCN(C(=O)NC(C(=O)N[C@H]2Cc3ccc(F)c(C(=O)O)c3OB2O)c2cc(F)c(O)c(O)c2Cl)C(=O)C1=O)Nc1ccncc1 (stereo partly drawn) [Example 233, (3R)-3-(2-(2-chloro-5-fluoro-3,4-dihydroxyphenyl)-2-(2,3-dioxo-4-(2-oxo-2-(pyridin-4-ylamino)ethyl)piperazine-1-carboxamido)acetamido)-7-fluoro-2-hydroxy-3,4-dihydro-2H-benzo[e][1,2]oxaborinine-8-carboxylic acid]	< 1	< 1	> 64	< 1	< 1	2 to 4 (≈ 2.79 to 5.58 µM)	< 1	< 1	16 to 32 (≈ 22.3 to 44.6 µM)	16 to 32 (≈ 22.3 to 44.6 µM)	< 1	2 to 4 (≈ 2.79 to 5.58 µM)	< 1	< 1	2 to 4 (≈ 2.79 to 5.58 µM)	–	–	–
